Assays:
Details in all cases: 72 h
[1] = test system: Caco-2; test: cell viability relative to DMSO; higher = less toxic
[2] = test system: Calu-3; test: as above
[3] = test system: HepG2; test: as above
[4] = test system: U2OS; test: as above
[5] = test system: Vero E6; test: as above
[6] = test system: Caco-2; test: relative viability EC50 (midpoint between 100% and the lowest measured viability); higher = less toxic
[7] = test system: Calu-3; test: as above
[8] = test system: Caco-2; test: drug sensitivity score (DSS) for viability; higher = more toxic; extreme values may be limits of the assay
[9] = test system: Calu-3; test: as above
[10] = test system: HepG2; test: as above
[11] = test system: U2OS; test: as above
[12] = test system: Vero E6; test: as above
[13] = test system: U2OS; test: relative viability EC50 (midpoint between 100% and the lowest measured viability); higher = less toxic
[14] = test system: Vero E6; test: as above
[15] = test system: HepG2; test: as above

Compound | cell viability ([1]; 1 nM) | cell viability ([1]; 10 nM) | cell viability ([1]; 100 nM) | cell viability ([1]; 1000 nM) | cell viability ([1]; 10000 nM) | cell viability ([2]; 1 nM) | cell viability ([2]; 10 nM) | cell viability ([2]; 100 nM) | cell viability ([2]; 1000 nM) | cell viability ([2]; 10000 nM) | cell viability ([3]; 1 nM) | cell viability ([3]; 10 nM) | cell viability ([3]; 100 nM) | cell viability ([3]; 1000 nM) | cell viability ([3]; 10000 nM) | cell viability ([4]; 1 nM) | cell viability ([4]; 10 nM) | cell viability ([4]; 100 nM) | cell viability ([4]; 1000 nM) | cell viability ([4]; 10000 nM) | cell viability ([5]; 1 nM) | cell viability ([5]; 10 nM) | cell viability ([5]; 100 nM) | cell viability ([5]; 1000 nM) | cell viability ([5]; 10000 nM) | relative viability EC50 [6] | relative viability EC50 [7] | drug sensitivity score [8] | drug sensitivity score [9] | drug sensitivity score [10] | drug sensitivity score [11] | drug sensitivity score [12] | relative viability EC50 [13] | relative viability EC50 [14] | relative viability EC50 [15]
Cc1nc(-c2cn3c(n2)-c2ccc(-c4cnn(C(C)(C)C(N)=O)c4)cc2OCC3)n(C(C)C)n1 [taselisib] | 106% | 99.6% | 90.8% | 59.4% | 32.4% | 99.2% | 88.1% | 63.6% | 36% | 24% | 97.4% | 84.8% | 70.3% | 62.7% | 52% | 102% | 97.3% | 90.4% | 70.3% | 57.2% | 106% | 106% | 97.3% | 85% | 62.6% | 0.649 µM | 0.107 µM | 8.9 | 16.9 | 11.6 | 6.2 | 3.5 |  |  | 
CC(=O)O[C@H]1CC[C@@]2(C)C(=CC[C@@H]3[C@@H]2CC[C@]2(C)C(c4cccnc4)=CC[C@@H]32)C1 [abiraterone-acetate] | 97.1% | 99.8% | 95.5% | 92.8% | 92.6% | 98.3% | 102% | 96.6% | 87.8% | 107% |  |  |  |  |  | 101% | 100% | 99.5% | 95.8% | 102% |  |  |  |  |  | > 10 µM | > 10 µM | 0 | 0 |  | 0 |  | > 10 µM |  | 
CNC(=O)c1cccc(NC(=O)N2CCC(Oc3ccccc3Cl)CC2)c1 | 94.3% | 100% | 93.2% | 102% | 82.7% | 80.3% | 99.6% | 86.4% | 99.4% | 101% | 99.1% | 101% | 92.4% | 79.3% | 50.5% | 94.9% | 103% | 97.3% | 99.6% | 91.4% | 102% | 99.5% | 97% | 89.9% | 91% | > 10 µM | > 10 µM | 0.3 | 0 | 4.8 | 0 | 0 | > 10 µM | > 10 µM | 
C[N+](C)(C)CCOP(=O)(O)OC[C@H](O)CO [choline-alfoscerate] | 106% | 101% | 100% | 100% | 102% | 99.9% | 98% | 91.2% | 96.3% | 102% |  |  |  |  |  | 105% | 102% | 101% | 99.4% | 98% |  |  |  |  |  | > 10 µM | > 10 µM | 0 | 0 |  | 0 |  | > 10 µM |  | 
OCCN1CCN(CC/C=C2/c3ccccc3Sc3ccc(Cl)cc32)CC1 [zuclopenthixol] | 105% | 80.8% | 92.8% | 94.8% | 82% | 95.1% | 93.9% | 98.9% | 91.9% | 47.9% | 93.4% | 101% | 89.9% | 98.6% | 66% | 99.6% | 96% | 99.6% | 97.1% | 79.2% | 95.2% | 95% | 93% | 93.7% | 79.2% | > 10 µM | 1.95 µM | 0.8 | 4.1 | 1.8 | 1.1 | 0.8 | > 10 µM | > 10 µM | 
CC(CCc1ccc(O)cc1)NCC(O)c1ccc(O)cc1 (configuration not stated) [ractopamine] | 91.9% | 84.6% | 104% | 110% | 114% | 92.8% | 87.2% | 101% | 94.4% | 115% |  |  |  |  |  | 100% | 98.1% | 99.1% | 99.2% | 101% | 115% | 102% | 101% | 99.3% | 104% | > 10 µM | > 10 µM | 0 | 0 |  | 0 | 0 | > 10 µM | > 10 µM | 
C[C@]12CC[C@@H](O)C[C@@H]1CC[C@@H]1[C@@H]2CC[C@]2(C)C(c3ccccc3)=CC[C@@H]12 [17-PA] | 95% | 87.9% | 87.5% | 104% | 82.6% | 101% | 106% | 94.2% | 94.7% | 99.8% |  |  |  |  |  | 96.1% | 101% | 96.4% | 103% | 102% | 98.1% | 89.2% | 99.6% | 93% | 107% | > 10 µM | > 10 µM | 0.3 | 0 |  | 0 | 0 | > 10 µM | > 10 µM | 
CC(C)N(CCC(=O)c1ccc2ccccc2c1)Cc1ccccc1 | 90.3% | 94.8% | 94.4% | 97.7% | 99.5% | 97.6% | 102% | 102% | 97.5% | 92.1% | 98.4% | 91.6% | 99% | 101% | 66.6% | 99.2% | 98.2% | 93.5% | 96.7% | 95% | 96.2% | 98.7% | 99% | 96.3% | 87% | > 10 µM | > 10 µM | 0 | 0 | 1.4 | 0 | 0.3 | > 10 µM | > 10 µM | 
CC(C(=O)O)c1ccc(N2Cc3ccccc3C2=O)cc1 (configuration not stated) [indoprofen] | 91.9% | 97.8% | 99.5% | 96.5% | 93.8% | 84.3% | 104% | 97.1% | 92.9% | 94.1% |  |  |  |  |  | 95.8% | 97.6% | 103% | 100% | 102% | 95.9% | 99.6% | 97.8% | 99.4% | 105% | > 10 µM | > 10 µM | 0 | 0 |  | 0 | 0 | > 10 µM | > 10 µM | 
COc1cc(OC)c(OC)cc1C=O [asaraldehyde] | 95.2% | 102% | 94.8% | 104% | 90.1% | 87% | 108% | 90.5% | 107% | 88.3% |  |  |  |  |  | 97.3% | 103% | 97.7% | 105% | 99% | 108% | 100% | 98.6% | 103% | 102% | > 10 µM | > 10 µM | 0 | 0 |  | 0 | 0 | > 10 µM | > 10 µM | 
COc1ccc2[nH]cc(C3=CCNCC3)c2c1 | 90.7% | 107% | 99.6% | 106% | 98.4% | 92.3% | 90% | 95.1% | 96.1% | 101% |  |  |  |  |  | 95.7% | 103% | 96% | 102% | 98.8% | 101% | 98.7% | 104% | 105% | 100% | > 10 µM | > 10 µM | 0 | 0 |  | 0 | 0 | > 10 µM | > 10 µM | 
C[C@]12CC[C@H](O)C[C@H]1CC[C@@H]1[C@@H]2CC[C@]2(C)[C@@](O)(c3ccoc3)CC[C@]12O [rostafuroxine] | 103% | 98% | 99.7% | 97.8% | 109% | 96.4% | 88.4% | 103% | 94.7% | 99.6% |  |  |  |  |  | 102% | 98.6% | 101% | 101% | 101% | 103% | 102% | 99.2% | 96.1% | 99.7% | > 10 µM | > 10 µM | 0 | 0 |  | 0 | 0 | > 10 µM | > 10 µM | 
CC(C)(CO)[C@@H](O)C(=O)NCCC(=O)O [pantothenic-acid] | 101% | 97.3% | 96.7% | 94.8% | 66.4% | 99.6% | 97.7% | 106% | 87.8% | 103% |  |  |  |  |  | 95.9% | 91.4% | 101% | 92.3% | 97.4% | 100% | 103% | 95% | 98.5% | 94% |  | > 10 µM | 2.4 | 0 |  | 0 | 0 | > 10 µM | > 10 µM | 
CCCc1nc(C(C)(C)O)c(C(=O)OCc2oc(=O)oc2C)n1Cc1ccc(-c2ccccc2-c2nnn[nH]2)cc1 [olmesartan-medoxomil] | 92.8% | 96% | 97.5% | 91.4% | 99.3% | 91.5% | 92.9% | 100% | 94.3% | 104% |  |  |  |  |  | 95.3% | 93.7% | 99.6% | 96.3% | 99.2% | 97.6% | 99.2% | 94.6% | 89% | 115% | > 10 µM | > 10 µM | 0 | 0 |  | 0 | 0 | > 10 µM | > 10 µM | 
COc1ccc(Cn2ccc3ccc(C(=O)NO)cc32)cc1 | 98% | 97% | 100% | 101% | 70.1% | 103% | 95.2% | 96.8% | 100% | 86.7% | 105% | 102% | 97.7% | 94.2% | 56.4% | 97.9% | 98.2% | 97.5% | 97% | 72.4% | 96.7% | 100% | 104% | 94.8% | 51.5% |  | > 10 µM | 1.2 | 0.1 | 3.2 | 1.6 | 3.4 |  |  | 
NCCc1c[nH]c2ccc(O)cc12 [serotonin] | 96.8% | 89.1% | 102% | 90.2% | 89.5% |  |  |  |  |  | 89.2% | 91.4% | 94.3% | 88.4% | 107% | 91.3% | 95.8% | 94.3% | 97.3% | 92.9% | 107% | 102% | 103% | 98.9% | 101% | > 10 µM |  | 0 |  | 0 | 0 | 0 | > 10 µM | > 10 µM | > 10 µM
COc1ccc2nc3[nH]nc(C)c3c(NCCOCCO)c2c1 | 103% | 102% | 89.6% | 100% | 96.8% | 106% | 107% | 88.8% | 94.7% | 70% | 104% | 97.2% | 102% | 87.6% | 75% | 102% | 102% | 95.9% | 105% | 104% | 106% | 98% | 102% | 99.4% | 91.9% | > 10 µM |  | 0 | 2.1 | 2.4 | 0 | 0 | > 10 µM | > 10 µM | > 10 µM
